A word on the melting point: it is the temperature of the solid-liquid transition.

The results in this text go back to US8084395B2, “4-aza indole derivatives and their use as fungicides” (Syngenta Crop Protection, Inc., priority 2007, dated 2011).

`Cc1cnc2c(-c3ccc(F)cc3)c(-c3ccncc3)[nH]c2c1` [Example 1, 3-(4-Fluoro-phenyl)-6-methyl-2-pyridin-4-yl-1H-pyrrolo[3,2-b]pyridine]: the melting point lay in the range of 127 to 128 °C.
For the compound `COCn1c(-c2ccncc2)c(-c2ccc(F)cc2)c2ncc(C)cc21` [Example 2, 3-(4-Fluoro-phenyl)-1-methoxymethyl-6-methyl-2-pyridin-4-yl-1H-pyrrolo[3,2-b]pyridine], the melting point is 208 to 209 °C.
`COCOn1c(-c2ccncc2)c(-c2ccc(F)cc2)c2ncccc21` [Example 5, 3-(4-Fluoro-phenyl)-1-methoxymethoxy-2-pyridin-4-yl-1H-pyrrolo[3,2-b]pyridine] showed a melting point of 169 to 170 °C.
In the case of `COC(=O)CC(=O)Nc1cc(-c2[nH]c3cc(C)cnc3c2-c2ccc(F)cc2)ccn1` [Example 8, N-{4-[3-(4-Fluoro-phenyl)-6-methyl-1H-pyrrolo[3,2-b]pyridin-2-yl]-pyridin-2-yl}-malonamic acid methyl ester] it was 237 to 238 °C; in that of `FCCn1c(-c2ccnc(Nc3cccc(F)c3)c2)c(-c2ccc(F)cc2)c2ncccc21` [Example 9, {4-[1-(2-Fluoro-ethyl)-3-(4-fluoro-phenyl)-1H-pyrrolo[3,2-b]pyridin-2-yl]-pyridin-2-yl}-(3-fluoro-phenyl)-amine], 255 to 256 °C.
In the case of `NC(=O)c1cc(-c2[nH]c3cccnc3c2-c2ccc(F)cc2)ccn1` [Example 10, 4-[3-(4-Fluoro-phenyl)-1H-pyrrolo[3,2-b]pyridin-2-yl]-pyridine-2-carboxylic acid amide] it was 157 to 158 °C; in that of `Fc1ccc(-c2c(-c3ccncn3)[nH]c3cccnc23)cc1` [Example 11, 3-(4-Fluoro-phenyl)-2-pyrimidin-4-yl-1H-pyrrolo[3,2-b]pyridine], 169 to 170 °C; in that of `COCC(C)Nc1nccc(-c2c(-c3ccc(F)cc3)c3ncccc3n2COC)n1` (centres unmarked) [Example 12, {4-[3-(4-Fluoro-phenyl)-1-methoxymethyl-1H-pyrrolo[3,2-b]pyridin-2-yl]-pyrimidin-2-yl}-(2-methoxy-1-methyl-ethyl)-amine], 151 to 152 °C.
